One assay addresses PP1. Briefly: PP1 phosphatase inhibition, general phosphatase assay using para-nitrophenylphosphate. The assay is classed as biochemical. The note with it: read-out: IC50 Target PP1. From the text:
(§1) Assays protocols for the other enzymes mentioned herein (MtPTPA, PP1, VHR, PTP1B) are disclosed in Schweizer R A S, Atanasov, G A, Frey B M, and Odermatt A, Mol. Cell. Endocrinol. 2003, 212, 41-49 and Barratte, B., Meijer L., Galaktionov K. & Beach D, Anticancer Res. 1992, 12, 873-880. For determination of the phosphatase activity, a general phosphatase assay using para-nitrophenylphosphate was applied.

A further assay addresses 11beta-HSD1 (Homo sapiens, UniProt P28845). Nature of the assay: biochemical. The note with it: read-out: IC50 Target 11beta-HSD1. The text has this:
(§2) Assay protocols for Cdc25A, 11βHSD1, 11βHSD2, and AChE are described in detain in the publication of Koch M A, Wittenberg L O, Basu S, Jeyaraj D A, Gourzoulidou E, Reinecke K, Odermatt A, Waldmann H (Proc. Natl. Acad. Sci. U.S.A. 2004 Nov. 30; 101(48):16721-6) and in Koch M A et al., Proc. Natl. Acad. Sci. U.S.A. 2005 Nov. 29; 102 (48):17272-7.

The target in a further assay is T1, Cdc25A (Homo sapiens, UniProt P30304).
T1 sequence (P30304 1-524): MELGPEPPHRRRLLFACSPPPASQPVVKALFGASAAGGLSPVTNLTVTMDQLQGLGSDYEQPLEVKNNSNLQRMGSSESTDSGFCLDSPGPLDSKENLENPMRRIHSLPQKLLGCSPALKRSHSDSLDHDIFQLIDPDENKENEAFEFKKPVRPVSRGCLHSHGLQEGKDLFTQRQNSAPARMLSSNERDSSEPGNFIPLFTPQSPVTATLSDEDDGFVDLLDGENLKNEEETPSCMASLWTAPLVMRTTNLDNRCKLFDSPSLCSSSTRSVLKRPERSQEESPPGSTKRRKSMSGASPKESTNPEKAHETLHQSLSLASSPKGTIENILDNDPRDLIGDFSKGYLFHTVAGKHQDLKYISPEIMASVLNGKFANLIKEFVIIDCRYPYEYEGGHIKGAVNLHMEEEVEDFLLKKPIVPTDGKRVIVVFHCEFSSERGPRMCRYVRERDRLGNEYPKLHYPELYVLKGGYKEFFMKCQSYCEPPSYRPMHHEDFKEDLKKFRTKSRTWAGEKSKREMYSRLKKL
Briefly: Cdc25A phosphatase inhibition. The assay is classed as biochemical.
Description: as §2

Another assay addresses T2, PTP1B (Homo sapiens, UniProt P18031).
T2 sequence (P18031 1-435): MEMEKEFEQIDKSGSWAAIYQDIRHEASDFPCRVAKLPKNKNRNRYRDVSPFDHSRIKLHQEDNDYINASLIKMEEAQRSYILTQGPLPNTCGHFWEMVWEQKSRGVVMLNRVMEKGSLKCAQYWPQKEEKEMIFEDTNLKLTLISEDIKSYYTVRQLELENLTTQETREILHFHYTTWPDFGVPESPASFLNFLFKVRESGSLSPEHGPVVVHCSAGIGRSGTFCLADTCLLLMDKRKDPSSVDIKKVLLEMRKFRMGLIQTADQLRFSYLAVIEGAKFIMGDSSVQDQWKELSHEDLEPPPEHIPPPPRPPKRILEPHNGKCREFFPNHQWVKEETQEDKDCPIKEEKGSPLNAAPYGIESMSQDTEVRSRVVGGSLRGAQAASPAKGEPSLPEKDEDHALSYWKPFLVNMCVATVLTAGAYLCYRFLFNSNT
Nature of the assay: PTP1B phosphatase inhibition, general phosphatase assay using para-nitrophenylphosphate. The assay is classed as biochemical.
Description: as §1

In a further assay the target is MPTPA (Mycobacterium tuberculosis, UniProt P9WIA1). Nature of the assay: MtPTPA phosphatase inhibition, general phosphatase assay using para-nitrophenylphosphate. It counts as biochemical.
Description: as §1

The target of the next assay is VHR (Homo sapiens, UniProt P51452). Briefly: VHR phosphatase inhibition, general phosphatase assay using para-nitrophenylphosphate. The assay is classed as biochemical. The following applies: read-out: IC50 Target VHR.
Description: as §1

Each structure is given as a SMILES string. pIC50: −log10 of the molar value. Where two headings read alike, the source gives them in different places.

Chain of 11beta-HSD1 (P28845 whole entry): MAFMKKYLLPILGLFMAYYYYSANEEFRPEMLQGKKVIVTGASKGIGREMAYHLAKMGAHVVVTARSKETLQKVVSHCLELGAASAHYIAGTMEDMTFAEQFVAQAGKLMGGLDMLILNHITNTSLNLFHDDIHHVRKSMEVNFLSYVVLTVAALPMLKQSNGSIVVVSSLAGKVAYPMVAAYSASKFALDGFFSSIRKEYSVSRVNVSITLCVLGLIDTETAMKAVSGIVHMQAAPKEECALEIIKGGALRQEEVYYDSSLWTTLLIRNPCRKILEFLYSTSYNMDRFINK
Chain of VHR (P51452 whole entry, species assumed): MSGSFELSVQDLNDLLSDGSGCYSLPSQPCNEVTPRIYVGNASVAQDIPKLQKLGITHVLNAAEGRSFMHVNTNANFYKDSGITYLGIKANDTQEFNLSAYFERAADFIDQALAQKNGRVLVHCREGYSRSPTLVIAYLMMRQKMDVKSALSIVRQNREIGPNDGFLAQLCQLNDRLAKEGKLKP
Chain of MPTPA (P9WIA1 whole entry): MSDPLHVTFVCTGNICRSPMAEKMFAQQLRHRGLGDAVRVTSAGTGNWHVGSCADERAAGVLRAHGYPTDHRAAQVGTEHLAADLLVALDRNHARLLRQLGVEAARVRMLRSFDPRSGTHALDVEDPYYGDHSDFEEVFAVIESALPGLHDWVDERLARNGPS

Regarding `CC1=C2CCC[C@H](O)[C@@]2(C)C/C(=C\c2cc3ccccc3o2)C1=O` [Compound 4, (3E,4aS,5S)-3-[(Benzofuran-2-yl)methylen]-4,4a,5,6,7,8-hexahydro-5-hydroxy-1,4a-dimethyl-naphthalen-2(3H)-one], the pIC50 (usually the negative decadic logarithm of the IC50, by convention in mol/L) at PP1 is 4.30 to 5.00; on 11beta-HSD1, greater than 5.00; at Cdc25A (read-out: IC50 Target Cdc25A) it was 4.30 to 5.00; at PTP1B (read-out: IC50 Target PTP1B) it was 4.30 to 5.00.

Take `CC1=C2CCC[C@H](O)[C@@]2(C)C/C(=C\c2cc(Cl)cs2)C1=O` [Compound 12, (3E,4aS,5S)-3-[(4-Chlorthiophen-2-yl)methylen]-4,4a,5,6,7,8-hexahydro-5-hydroxy-1,4a-dimethylnaphthalen-2(3H)-one]: the figures for the pIC50 at PP1, on 11beta-HSD1 and at PTP1B (read-out: IC50 Target PTP1B) were 4.30 to 5.00, greater than 5.00 and 4.30 to 5.00, respectively.

As for `CC1=C2CCC[C@H](O)[C@@]2(C)C/C(=C\c2ccc([N+](=O)[O-])cc2)C1=O` [Compound 17, (3E,4aS,5S)-3-(4-Nitrobenzyliden)-4,4a,5,6,7,8-hexahydro-5-hydroxy-1,4a-dimethylnaphthalen-2(3H)-one], the pIC50 at PP1 and at PTP1B (read-out: IC50 Target PTP1B) was 4.30 to 5.00 each time.

In the case of `COc1ccc(/C=C2\C[C@@]3(C)C(=C(C)C2=O)CCC[C@@H]3O)cc1` [Compound 24, (3E,4aS,5S)-3-(4-Methoxybenzyliden)-4,4a,5,6,7,8-hexahydro-5-hydroxy-1,4a-dimethylnaphthalen-2(3H)-on], the pIC50 on 11beta-HSD1 is greater than 5.00; against MPTPA, 4.30 to 5.00; at Cdc25A (read-out: IC50 Target Cdc25A), 4.30 to 5.00; at VHR it was 4.30 to 5.00; on PTP1B (read-out: IC50 Target PTP1B) it was 4.30 to 5.00.

Take `CC(=O)Oc1cccc(/C=C2\C[C@@]3(C)C(=C(C)C2=O)CCC[C@@H]3O)c1` [Compound 26, 3-{(1E)-[(4S,4aS)-1,2,3,4,4a,5-Hexahydro-4-hydroxy-4a,8-dimethyl-7-oxonaphthalen-6(7H)-yliden]methyl}phenylacetat]: the pIC50 at PP1 was 4.30 to 5.00; on 11beta-HSD1, greater than 5.00; on VHR, 4.30 to 5.00; on PTP1B (read-out: IC50 Target PTP1B) it was 4.30 to 5.00.

`CCCCCCCCCCC#Cc1ccc(/C=C2\C[C@@]3(C)C(=C(C)C2=O)CCC[C@@H]3O)cc1` [Compound 45, (3E,4aS,5S)-3-[4-(Dodec-1-inyl)benzyliden]-4,4a,5,6,7,8-hexahydro-5-hydroxy-1,4a-dimethyl-naphthalen-2(3H)-on]: the pIC50 on PP1 is greater than 5.00; on VHR it was 4.30 to 5.00; on PTP1B (read-out: IC50 Target PTP1B), 4.30 to 5.00.

In the case of `CC1=C2CCCC(O)C2(C)CC(=Cc2ccc(C#CCCCC#N)cc2)C1=O` [Compound 47, 6-{4-{(1E)-[(43,4aS)-1,2,3,4,4a,5-Hexahydro-4-hydroxy-4a,8-dimethyl-7-oxonaphthalen-6(7H)-yliden]-methyl}phenyl}hex-5-in-nitril], the pIC50 is greater than 5.00 at PP1, 4.30 to 5.00 on Cdc25A (read-out: IC50 Target Cdc25A), 4.30 to 5.00 at VHR and 4.30 to 5.00 at PTP1B (read-out: IC50 Target PTP1B).

On to `CC1=C2CCC[C@H](O)[C@@]2(C)C/C(=C\c2ccc(C#Cc3cccc(F)c3)cc2)C1=O` [Compound 49, (3E,4aS,5S)-3-{4-[2-(3-Fluorphenyl)ethinyl]benzyliden}-4,4a,5,6,7,8-hexahydro-5-hydroxy-1,4a-dimethylnaphthalen-2(3H)-one], for which the negative logarithm of the IC50 (pIC50) is greater than 5.00 at PP1, greater than 5.00 on Cdc25A (read-out: IC50 Target Cdc25A) and 4.30 to 5.00 at VHR.

`CC1=C2CCC[C@H](O)[C@@]2(C)C/C(=C\c2ccc(C#C[Si](C)(C)C)cc2)C1=O` [Compound 53, (3E,4aS,5S)-3-{4-[2-(Trimethylsilyl)ethinyl]benzyliden}-4,4a,5,6,7,8-hexahydro-5-hydroxy-1,4a-dimethylnaphthalen-2(3H)-on]: the pIC50 on PP1, at Cdc25A and against PTP1B was 4.30 to 5.00 each time.

With `CC1=C2CCC[C@H](O)[C@@]2(C)C/C(=C\c2ccc(C#CCCO)cc2)C1=O` [Compound 55, (3E,4aS,5S)-3-[4-(4-Hydroxybut-1-inyl)benzyliden]-4,4a,5,6,7,8-hexahydro-5-hydroxy-1,4a-dimethylnaphthalen-2(3H)-one], the pIC50 against MPTPA was 4.30 to 5.00; on Cdc25A (read-out: IC50 Target Cdc25A), greater than 5.00; on VHR, 4.30 to 5.00; on PTP1B (read-out: IC50 Target PTP1B), 4.30 to 5.00.

`C=C(C)C#Cc1ccc(/C=C2\C[C@@]3(C)C(=C(C)C2=O)CCC[C@@H]3O)cc1` [Compound 56, (3E,4aS,5S)-3-[4-(3-Methylbut-3-en-1-inyl)benzyliden]-4,4a,5,6,7,8-hexahydro-5-hydroxy-1,4a-dimethylnaphthalen-2(3H)-on]: the pIC50 at MPTPA, at VHR and on PTP1B (read-out: IC50 Target PTP1B) was 4.30 to 5.00 in each case.

As to `CCCCCCCCCC#Cc1ccc(/C=C2\C[C@@]3(C)C(CCC[C@@H]3O)C(C)C2=O)cc1` (stereo partly drawn) [Compound 131, (E,4aS,5S)-3-[4-(Undec-1-inyl)benzyliden]-octahydro-5-hydroxy-1,4a-dimethylnaphthalen-2(1H)-one], the pIC50 at MPTPA (read-out: IC50 Target MPTPA) and at VHR was 4.30 to 5.00 each time.

On to `CCCCCCCCCCCCC#Cc1ccc(/C=C2\C[C@@]3(C)C(CCC[C@@H]3O)C(C)C2=O)cc1` (stereo partly drawn) [Compound 133, (E,4aS,5S)-3-[4-(Tetradec-1-inyl)benzyliden]-octahydro-5-hydroxy-1,4a-dimethylnaphthalen-2(1H)-one], for which the pIC50 at MPTPA (read-out: IC50 Target MPTPA) and at VHR was 4.30 to 5.00 in each case.

In the case of `CCCCCCCCCCCCC#Cc1ccc(/C=C2\C[C@@]3(Cc4ccccc4)C(=C(C)C2=O)CCC[C@@H]3O)cc1` [Compound 134, (3E,4aS,5S)-3-[4-(Tetradec-1-inyl)benzyliden]-4a-benzyl-4,4a,5,6,7,8-hexahydro-5-hydroxy-1-methylnaphthalen-2(3H)-one], the pIC50 at MPTPA (read-out: IC50 Target MPTPA) and on VHR was 4.30 to 5.00 throughout.

For the compound `CC1=C(/C=C2\C[C@@]3(C)C(CCC[C@@H]3O)C(C)C2=O)NCC1` (stereo partly drawn) [Compound 158, (3E,4aS,5S)-Octahydro-3-[(4,5-dihydro-3-methyl-1H-pyrrol-2-yl)methylen]-5-hydroxy-1,4a-dimethylnaphthalen-2(1H)-one], the pIC50 at MPTPA (read-out: IC50 Target MPTPA), at VHR and at PTP1B (read-out: IC50 Target PTP1B) was 4.30 to 5.00 throughout.

Take `CC1=C2CCC[C@H](O)[C@@]2(C)CC(=Cc2ccc(C#CCN(C)C)cc2)C1=O` [Compound 396, (4aS,5S)-3-[4-(3-Dimethylamino-prop-1-ynyl)-benzylidene]-5-hydroxy-1,4a-dimethyl-4,4a,5,6,7,8-hexahydro-3H-naphthalen-2-one]: the pIC50 against MPTPA, at VHR and at PTP1B (read-out: IC50 Target PTP1B) was 4.30 to 5.00 each time.

As for `CC1(CCCc2ccccc2)C(=O)CC[C@@]2(C)C1CCC[C@@H]2O` (stereo partly drawn) [Compound 397, (4aS,5S)-5-Hydroxy-1,4a-dimethyl-1-(3-phenyl-propyl)-octahydro-naphthalen-2-one], the pIC50 at PP1, on Cdc25A (read-out: IC50 Target Cdc25A) and at VHR was 4.30 to 5.00 throughout.

For `C/C=C1\CC[C@@]2(C)C(=C1C)CCC[C@@H]2O` [Compound 411, (2E,4aS,5S)-6-Ethylidene-5,8a-dimethyl-1,2,3,4,6,7,8,8a-octahydro-naphthalen-1-ol], the pIC50 on PP1 is 4.30 to 5.00.

For the compound `CCC(c1ccc(I)cc1)C1C[C@@]2(C)C(=C(C)C1=O)CCC[C@@H]2O` (stereo partly drawn) [Compound 412, (4aS,5S)-5-Hydroxy-3-[1-(4-iodo-phenyl)-propyl]-1,4a-dimethyl-4,4a,5,6,7,8-hexahydro-3H-naphthalen-2-one], the pIC50 on MPTPA (read-out: IC50 Target MPTPA), on VHR and at PTP1B (read-out: IC50 Target PTP1B) was 4.30 to 5.00 in each case.

As to `CC1=C2CCC[C@H](O)[C@@]2(C)CCC1=O` [Compound 413, (4aS,5S)-5-Hydroxy-1,4a-dimethyl-4,4a,5,6,7,8-hexahydro-3H-naphthalen-2-one], the pIC50 on MPTPA (read-out: IC50 Target MPTPA), at VHR and at PTP1B (read-out: IC50 Target PTP1B) was 4.30 to 5.00 in each case.

(Values after patent US20090062401A1, “DECALINE-DERIVED COMPOUNDS AS […] ACTIVE AGENTS” (UNIVERSITAT DORTMUND, priority 2004, published 2009).)
